Experimental data reported in the NIST ThermoML archive (doi:10.1021/je900050z).
“And” between values parts separate entries of the source, which are not always exact repeats. Identical values can stand only once.

Conditions: Liquid

C1CCCCC1 [cyclohexane]
Conditions | vapor or sublimation pressure
295.42 K | 11.15 kPa
295.45 K | 11.16 kPa
295.46 K | 11.17 kPa
295.72 K | 11.33 kPa
295.75 K | 11.35 kPa
296.22 K | 11.63 kPa
297.08 K | 12.15 kPa
297.13 K | 12.16 kPa and 12.17 kPa
297.86 K | 12.61 kPa
297.99 K | 12.71 kPa
298.83 K | 13.23 kPa
299.75 K | 13.8 kPa
299.77 K | 13.81 kPa
300.85 K | 14.52 kPa
302.63 K | 15.71 kPa
303.02 K | 16.03 kPa
303.15 K | 16.11 kPa
304.38 K | 17.04 kPa
304.4 K | 17.05 kPa
304.42 K | 17.07 kPa
306.05 K | 18.33 kPa
306.4 K | 18.6 kPa
307.45 K | 19.4 kPa
308.06 K | 19.91 kPa
309.5 K | 21.12 kPa
310.98 K | 22.47 kPa
312.48 K | 23.89 kPa
313.15 K | 24.56 kPa
313.84 K | 25.25 kPa
315.01 K | 26.47 kPa
315.26 K | 26.67 kPa
316.32 K | 27.88 kPa
317.51 K | 29.23 kPa
318.31 K | 30.09 kPa
318.67 K | 30.56 kPa
319.81 K | 31.93 kPa
320.87 K | 33.27 kPa
321.91 K | 34.59 kPa
321.99 K | 34.69 kPa
322.94 K | 35.95 kPa
323.15 K | 36.27 kPa
323.44 K | 36.59 kPa
323.88 K | 37.23 kPa
323.95 K | 37.33 kPa
324.83 K | 38.56 kPa
326.12 K | 40.45 kPa
326.68 K | 41.25 kPa
327.61 K | 42.68 kPa
328.43 K | 43.97 kPa
329.32 K | 45.4 kPa
329.35 K | 45.43 kPa
330.05 K | 46.59 kPa
330.94 K | 48.07 kPa
331.68 K | 49.32 kPa
332.02 K | 49.89 kPa
332.41 K | 50.6 kPa
333.11 K | 51.87 kPa
333.15 K | 51.92 kPa
333.83 K | 53.15 kPa
333.86 K | 53.19 kPa
334.53 K | 54.47 kPa
335.26 K | 55.85 kPa
335.64 K | 56.56 kPa
335.95 K | 57.19 kPa
336.7 K | 58.63 kPa
337.36 K | 59.96 kPa
338.06 K | 61.39 kPa and 61.4 kPa
338.65 K | 62.63 kPa
338.67 K | 62.64 kPa
339.29 K | 63.95 kPa
339.92 K | 65.29 kPa
340.54 K | 66.63 kPa
341.12 K | 67.95 kPa
341.72 K | 69.29 kPa
342.32 K | 70.65 kPa
342.88 K | 71.93 kPa
343.15 K | 72.6 kPa
343.43 K | 73.25 kPa
344.05 K | 74.73 kPa
344.55 K | 75.96 kPa
345.08 K | 77.27 kPa
345.69 K | 78.76 kPa
346.18 K | 80 kPa
346.67 K | 81.25 kPa
347.18 K | 82.56 kPa and 82.57 kPa
347.69 K | 83.89 kPa
348.19 K | 85.23 kPa
348.65 K | 86.49 kPa
349.19 K | 87.93 kPa
349.72 K | 89.43 kPa
350.18 K | 90.64 kPa
350.25 K | 90.87 kPa
350.67 K | 92.07 kPa
351.1 K | 93.27 kPa
351.57 K | 94.63 kPa
352.01 K | 95.92 kPa
352.45 K | 97.23 kPa
352.9 K | 98.57 kPa
353.15 K | 99.31 kPa
353.36 K | 99.95 kPa

CCCCCCO [hexan-1-ol]
Conditions | vapor or sublimation pressure [kPa]
343.46 K | 2.04
344.2 K | 2.16
344.6 K | 2.23
345.36 K | 2.35
346.17 K | 2.47
347.27 K | 2.67
348.1 K | 2.79
348.35 K | 2.85
349.38 K | 3.04
349.75 K | 3.11
350.75 K | 3.32
351.39 K | 3.44
352.2 K | 3.64
352.63 K | 3.73
353 K | 3.83
353.31 K | 3.89
353.82 K | 3.96
355.2 K | 4.31
357.01 K | 4.79
358.22 K | 5.15
359.43 K | 5.51
360.34 K | 5.79
361.12 K | 6.04
361.86 K | 6.29
363.85 K | 6.99
364.61 K | 7.27
365.58 K | 7.64
366.3 K | 7.92
367.44 K | 8.4
368.05 K | 8.67
368.99 K | 9.08
369.67 K | 9.4
370.24 K | 9.67
370.83 K | 9.95
371.45 K | 10.27
372.1 K | 10.59
373 K | 11.05
373.67 K | 11.43
374.19 K | 11.73
375.14 K | 12.27
375.93 K | 12.73
376.59 K | 13.15
377.22 K | 13.53
377.83 K | 13.71
378.01 K | 13.85
378.37 K | 14.15
378.72 K | 14.4
379.1 K | 14.65
379.46 K | 14.91
379.75 K | 15.12
380.06 K | 15.37
380.41 K | 15.61
380.87 K | 15.95
381.15 K | 16.15
381.45 K | 16.37
381.89 K | 16.71
382.25 K | 16.97
382.56 K | 17.21
382.85 K | 17.44
383.18 K | 17.69
383.34 K | 17.84
383.67 K | 18.09
384.08 K | 18.43
384.87 K | 19.05
385.37 K | 19.47
385.86 K | 19.91
386.31 K | 20.31
386.83 K | 20.79
387.23 K | 21.15
387.62 K | 21.48
388.1 K | 21.91
388.59 K | 22.37
389.05 K | 22.79
389.48 K | 23.2
389.89 K | 23.6
390.23 K | 23.95
390.65 K | 24.36
390.93 K | 24.67
391.4 K | 25.13
391.75 K | 25.51
392.06 K | 25.83
392.51 K | 26.31
392.77 K | 26.59
393.14 K | 27
